Measured values: a melting point compilation (Tetko et al.; mined from patent text by program, amines drawn as free bases though some values may be those of a salt)

| Structure (SMILES) | melting point [°C] |
| --- | --- |
| O=C(Oc1cc(F)ccc1[N+](=O)[O-])c1cc2ccccc2oc1=O | 219 to 223 |
| CC1(C)CC(=O)Nc2ccc(-c3cccc(C#N)c3)cc21 | 190 to 192 |
| CCN1CCC(O)(c2ccc(F)c(Cl)c2)C1 (configuration not stated) | 157 to 158 |
| CNc1nc(-c2ccco2)c2ncn(Cc3ccc(OC)cc3)c2n1 | 144 to 145 |
| CC(C)(C)c1ccc(-c2cc(=O)cc(N3CCOCC3)s2)cc1 | 172 to 173 |
| COc1cccc(-n2nc(C(=O)O)c3csc(N)c3c2=O)c1 | 227 to 229 |
| COc1ccc(N(C(=O)OC(C)(C)C)S(=O)(=O)c2ccc(F)cc2)cc1OC | 99 to 102 |
| CC[C@H](C)C(OCc1ccccc1)[C@H]1[C@H]([N+](=O)[O-])[C@@H](c2cccs2)N[C@@H]1C(=O)NCCC(=O)O (some centres not stated) | 79 to 80 |
| COC(=O)CCc1conc1-c1ccc(Cl)c(Cl)c1 | 87 to 88 |
| O=C(Nc1ccc(Cl)c(C(F)(F)F)c1)Nc1ccc(-c2ccc(C(F)(F)F)cc2)cc1-c1nnn[nH]1 | 226 to 228 |
| CC(C)(C)OC(=O)CN(C(=O)CNC(=O)Nc1cccc(-c2nnn[nH]2)c1)c1ccccc1C(=O)c1ccccc1 | 163 to 175 |
| COc1ccc(CN2CCOCC2)c(OC)c1-c1ccc(C[C@H](NC(=O)c2c(Cl)cccc2Cl)C(=O)O)cc1 | 241 to 242 |
| COC(CCc1cc(C(F)(F)F)cc(C(F)(F)F)c1)C(Cc1csc2ccccc12)NC(C)=O (configuration not stated) | 120 to 121 |
| C[C@H](CC(F)(F)F)C(=O)N1C(=O)O[C@@H](c2ccccc2)[C@H]1C | 72.5 to 73.5 |
| O=C1NC(=O)C(=Cc2ccc(OCC3CN(c4ccccn4)CCO3)cc2)S1 (configuration not stated) | 188 |
| CC(C)CCS(=O)(=O)NC(=O)CCc1cc(OC(C)C)nn1Cc1ccc(Cl)cc1Cl | 143 to 145 |
| O=C1NCCc2c(-c3cccnc3)[nH]c3cccc1c23 | 260 to 262 |
| Cc1cc(Oc2cccnc2)c(S(C)(=O)=O)cc1C(=O)N=C(N)N | 221 to 224 |
| COC(=O)c1c(Br)c(Cl)cc2nn(C)cc12 | 141 to 142 |

| Structure (SMILES) | melting point [°C] |
| --- | --- |
| CCCCCCCN(CCCCCSc1nc2c([nH]1)CCCC2)C(=O)Nc1ccc(F)cc1F | 98 to 100 |
| Cc1sc(C(=O)OCc2ccccc2)cc1NC(=O)NCc1ccccc1 | 208 to 209 |
| c1ccc2nc(COc3cccc4cccnc34)ccc2c1 | 95 to 96 |
| COc1cc2c(cc1Cl)C(=O)Cc1ccccc1S2 | 171 to 173 |
| COC(=O)C1(O)CC(OC(C)=O)C(NC(=O)Cc2cc(=O)oc3cc(OC(C)=O)ccc23)C(C(OC(C)=O)C(COC(C)=O)OC(C)=O)O1 (configuration not stated) | 105 |
| ClCCOc1ccc(Cl)c2[nH]ccc12 | 68 to 72 |
| Cc1cc(O)cc(C)c1-c1cccc(CO)c1 | 175 |
| Cc1cc(N(C)S(C)(=O)=O)ccc1I | 85 to 87 |
| Cc1nc(NC(=O)c2ccccc2)sc1C(=O)NCc1cccc(Cl)c1 | 198 to 199 |
| CCC1(CCn2ccnc2)SCCS1 | 118 to 121 |
| CC(C)c1cccc(C(C)C)c1N1C(=O)c2ccc3c4cccc5c(C#CCCCCO)ccc(c6ccc(c2c36)C1=O)c54 | > 300 |
| CCC12CCC3=C(CCc4cc(OC)ccc43)C1CCC21OCCO1 (configuration not stated) | 135 to 137 |
| CC(=O)SCC(Cc1ccccc1)C(=O)Nc1cccc(C(=O)OCCOc2ccccc2)c1 (configuration not stated) | 90 to 92 |
| CCOC(=O)N1Cc2sc3ncn(CCN4CCN(c5ccccc5OC)CC4)c(=O)c3c2C1 | 153 to 155 |
| Cc1ccc(S(=O)(=O)Nc2ccc(SC#N)cc2[N+](=O)[O-])cc1 | 121 to 122 |
| CCCCc1ccc(CNC(=O)OC(C)(C)C)c(=O)n1Cc1ccc(-c2ccccc2-c2nnn[nH]2)cc1 | 105 |
| O=C(Oc1ccccn1)c1cc2cc(CCl)ccc2oc1=O | 125 to 129 |
| CCCOc1ccc2c(c1)[C@H](c1ccc(OC)cc1OCC(=O)O)[C@@H](CC(=O)O)[C@@H]2c1ccc2c(c1)OCO2 (racemic) | 210 to 212 |
